# From patent publication US6462173B1, “Inhibitors of phosphoserine and phosphothreonine-proline-specific isomerases” (Max-Planck-Gesellschaft zur Forderung der, priority 1997, dated 2002)
# Columns and labels:
# MPM-2 antigens = test: GST-Pin1 pull-down / depletion of MPM-2 antigens from HeLa cell extracts, MPM-2 immunoblotting; format: binding, human
# Description: To detect Pin1-binding proteins, either HeLa cells were lysed in or Xenopus extracts were diluted in a buffer (buffer A) containing 50 mM Tris-HCl, pH 8.0, 200 mM NaCl, 100 mM NaF, 1 mM sodium orthovanadate, 10% glycerol, 1% Triton X100, 10 μg/ml aprotinin, 50 μg/ml phenylmethylsulfonyl fluoride and 1 mM DTT. The lysates were preclarified with boiled S. aureus bacteria (CalBiochem) and then incubated with 10 μl of agarose beads containing various GST-Pin1 proteins or control GST for 2 h at 4° C. The precipitated proteins were washed 5 times in the same buffer and subjected to immunoblotting analysis. Immunoprecipitation and immunoblotting analysis using MPM-2 antibody (Davis et al. 1983), which was kindly provided by J. Kuang, Pin1 antibodies (Lu et al., 1996, kindly provided by M. White or newly generated), anti-phospho.Tyr antibody (UBI), anti-Cdc25C (Ogg, et al., 1994) (from H. Piwnica-Worms and Santa Cruz Biotechnology), anti-Cdc27, anti-Plk1 (Zymed), anti-Cdc2 (Solomon, M. J., M. Glotzer, T. H. Lee, M. Philippe and M. W. Kirschner. Cell 63:1013-1024 (1991), anti-human Myt1, anti-human cyclin B1 and anti-Xenopus cyclin B were performed, as described previously in Lu and Hunter, 1995; Lu et al., 1996).
# To determine whether GST-Pin1 can deplete MPM-2 antigens and to estimate what concentrations of Pin1 are required to completely deplete MPM-2 antigens, mitotic extracts were incubated with different amounts of GST-Pin1, followed by analyzing MPM-2 antigens remaining in the depleted supernatants. The total cellular Pin1 concentration in HeLa cells was estimated to be about 0.5 μM, based on immunoblotting analysis using anti-Pin1 antibodies with recombinant Pin1 protein as a standard.
# To determine if the Pin1 mutants interact with mitotic phosphoproteins, GST-Pin1, -Pin1^R68,69A and -Pin1^H59A fusion proteins were incubated with interphase or mitotic HeLa cell extracts and associated proteins subjected to MPM-2 immunoblotting analysis. […] A few proteins including the most strongly reacting p55 band could still be recognized. […] Thus, mutating the residues that are implicated in binding either the substrate's putative phosphate group or the substrate's Pro residue abolish the ability of Pin1 to bind MPM-2 antigens.
# mitotic GST-Cdc25 = target: T1, mitotic GST-Cdc25 (Xenopus laevis, UniProt P30309); test: Cdc25 activity assay (activation of cyclin B/Cdc2, H1 kinase); format: biochemical; details: 0.67 μM protein, 1 μM mitotic Cdc25
# T1 construct: made in house
# T1 sequence (P30309 1-550): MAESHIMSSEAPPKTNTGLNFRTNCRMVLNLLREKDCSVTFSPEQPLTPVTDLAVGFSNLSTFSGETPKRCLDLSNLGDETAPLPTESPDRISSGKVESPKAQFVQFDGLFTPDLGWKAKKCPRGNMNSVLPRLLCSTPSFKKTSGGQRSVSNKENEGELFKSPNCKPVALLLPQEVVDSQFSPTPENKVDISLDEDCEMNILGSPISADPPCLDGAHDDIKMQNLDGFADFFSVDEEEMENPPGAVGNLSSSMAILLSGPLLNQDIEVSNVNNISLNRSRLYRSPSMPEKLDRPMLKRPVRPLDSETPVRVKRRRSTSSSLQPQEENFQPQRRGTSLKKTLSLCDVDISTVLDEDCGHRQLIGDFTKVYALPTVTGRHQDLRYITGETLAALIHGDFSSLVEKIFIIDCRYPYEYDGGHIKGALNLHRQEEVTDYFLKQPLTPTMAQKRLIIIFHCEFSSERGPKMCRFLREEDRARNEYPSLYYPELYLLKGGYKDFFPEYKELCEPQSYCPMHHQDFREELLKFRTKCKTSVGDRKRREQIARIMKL
# Description: Cdc2 was assayed using histone H1 as a substrate, as previously described in Murray, 1991; Lu and Hunter, (1995).
# A subthreshold concentration of GST cyclin B (10 μg) was added to 1 ml of Xenopus interphase extract for thirty min at room temperature (Solomon, M. J., M. Glotzer, T. H. Lee, M. Philippe and M. W. Kirschner, Cell 63:1013-1024 (1990). This was diluted 8 fold in XB+3 mM DTT, rotated for 1 h with 3 ml of GST agarose beads, washed 3 times in XBIP (XB+500 mM NaCl and 1% NP40+2 mM DTT), washed 2 times (once overnight) in EB (80 mM β glycerol phosphate, 15 mM EGTA, 15 mM MgCl2)+2 mM DTT, 500 mM NaCl and 1% NP40, and finally twice with EB+10 mM DTT. These Cdc25 assay beads were stored at 4° C. for up to 1 month. Mitotic GST-Cdc25 was purified by incubating 22 μg of GST-Cdc25, in a Xenopus mitotic extract for 30 min at 23° C., this was diluted 8 fold in XB and rotated with 50 μl of glutathione-Agarose beads (Sigma) for 1 hr at 4° C. The beads were washed 5 times in XB-IP, twice in XB+2 mM DTT and eluted in 25 μl XB+2 mM reduced GSH. The final concentration of Mitotic GST-Cdc25 was 0.36 mg/ml. […] Phosphoimager analysis of the H1 kinase assays were quantified by the Molecular Dynamics ImageQuant 3.3 software. […] The most reproducible way to quantify the Cdc25 activity in this assay was by determining the endpoint dilution of Cdc25 which could activate Cdc2. […]
substance,measurement,setting,value
"Pin1: essential mitotic peptidyl-prolyl cis-trans isomerase, recombinant protein",depletion of MPM-2 antigens,"MPM-2 antigens; 8 μM GST-Pin1, mitotic extracts",depleted the majority of MPM-2 antigens
same,binding of MPM-2 antigens,"MPM-2 antigens; mitotic HeLa cell extracts, GST fusion proteins",specifically interacted with MPM-2 antigens
same,effect on Cdc25 activity,mitotic GST-Cdc25,mitotic Cdc25 failed to activate the Cdc2 complex
